Source: patent US20260053811A1, “METHODS OF TREATING HYPERTENSION IN OBESE SUBJECTS” (Mineralys Therapeutics, Inc., priority 2022, published 2026)

Tested on: hypertensive subjects
Experiment: Seated automated office blood pressure (AOBP) in randomized, placebo-controlled, dose-ranging study
Format: in vivo, human
Settings: Part 1
Experimental: A randomized, double-blinded, placebo-controlled, dose-ranging, multicenter study was conducted to evaluate the effect of orally administered Compound A HBr on blood pressure for the treatment of hypertension in male and female subjects ≥18 years of age.
The study consists of two parts. For enrollment into Part 1 of the study, a subject's value of plasma renin activity (PRA) must be ≤1 ng/mL/h based on morning measurement. If the value of PRA >1 ng/mL/h based on morning measurement, then subjects may be eligible to enter Part 2 of the study.
For Part 1, 163 enrolled subjects ≥18 years of age were randomized into 6 equal treatment groups (1:1:1:1:1:1) to 12.5 mg BID, 25 mg BID, 12.5 mg QD, 50 mg QD, 100 mg QD, or placebo. After a review of interim clinical data, the 2 lowest dose levels (12.5 mg QD and 12.5 mg BID) were stopped for future randomization due to a lack of consistent meaningful reduction of blood pressure, but the patients randomized to that point remained in the study through completion. Thus, after the review of interim clinical data, subjects were randomized into 4 equal treatment groups (1:1:1:1) to 25 mg BID, 50 mg QD, 100 mg QD, or placebo.
For Part 2, 36 enrolled subjects ≥18 years of age were randomized (5:1) to either 100 mg QD Compound A HBr or placebo such that the Compound A HBr treatment group consisted of approximately 30 subjects and the placebo treatment group will consist of approximately 6 subjects.
Subjects orally administered the assigned study drug (Compound A HBr or placebo) according to the assigned dosing regimen for 8 weeks beginning on Study Day 1. All subjects in Part 1 (regardless of dosing group) received BID dosing to preserve the integrity of the blind; active drug is administered as the morning dose for all QD dose groups. Subjects returned to the research facility or were seen by the clinical investigator or approved home health care professional at the end of Study Weeks 1, 2, 3, 4, 5, 6, 7, and 8 (±2 days) for protocol-defined efficacy and safety assessments and procedures, assessment of adverse events (AEs), and confirmation of compliance with study drug usage. Subjects also completed a telephone visit and blood pressure (BP) check at home approximately 3 days post last dose of study drug. Subjects attended up to 14 full clinic visits, including a pre-Screening visit, a Screening/start of Placebo Run-in visit, a second visit during Placebo Run-in, a clinic visit to initiate the ABPM procedure, a Randomization visit, 8 weekly visits during double-blind treatment, and an end-of-study visit scheduled 4 weeks after the last study treatment for final efficacy and safety assessments.
An automated oscillometric sphygmomanometer device was used to measure the subjects' systolic and diastolic blood pressure in office after approximately 5 minutes of rest in the seated position.
The primary endpoint is the change in office-measured (mean of last 2 of 5 unattended measurements using an automated oscillometric sphygmomanometer device after approximately 5 minutes of rest in the seated position) systolic blood pressure (SBP) from baseline to the end of Study Week 8.
Secondary endpoints of this study were: • (a) Change in 24-hour ambulatory blood pressure monitoring (ABPM) parameters (systolic and diastolic) from baseline to the end of Study Week 7. • (b) Change in office-measured SBP from baseline to the end of Study Weeks 1, 2, 3, 4, 5, 6, and 7. • (c) Change in office-measured diastolic blood pressure (DBP) from baseline to the end of Study Weeks 1, 2, 3, 4, 5, 6, 7, and 8. • (d) Proportion of subjects who achieve office-measured BP of ≤130/80 mm Hg by the end of Study Week 8.

[1] = 12.5 mg BID, Seated SBP Tertile High
[2] = 12.5 mg BID, Seated SBP Tertile Middle
[3] = 12.5 mg BID, Systolic Blood Pressure Tertile at Baseline High
[4] = 12.5 mg BID, Systolic Blood Pressure Tertile at Baseline Low
[5] = 12.5 mg BID, Systolic Blood Pressure Tertile at Baseline Middle
[6] = 12.5 mg BID, Thiazide Diuretic Use at Baseline No
[7] = 12.5 mg BID, Thiazide Diuretic Use at Baseline Yes

## CC(=O)N[C@H]1CC[C@H](NC(=O)CN2CCN(c3nncc(-c4ccc(C)cc4)n3)CC2)CC1 [Compound A HBr]
12.5 mg BID, Race Black or AA
  Mean (SD) Change from Baseline at Week 8 in Automated Office-Measured Diastolic Blood Pressure: 0.21 (7.03) mmHg
  Mean (SD) Change from Baseline at Week 8 in Automated Office-Measured Systolic Blood Pressure: −7.43 (20.17) mmHg
12.5 mg BID, Race Other
  Mean (SD) Automated Office-Measured Diastolic Blood Pressure at Wk 8: 72.92 (10.54) mmHg
  Mean (SD) Automated Office-Measured Systolic Blood Pressure at Wk 8: 128.50 (11.84) mmHg
  Mean (SD) Change from Baseline at Week 8 in Automated Office-Measured Diastolic Blood Pressure: −9.38 (7.89) mmHg
  Mean (SD) Change from Baseline at Week 8 in Automated Office-Measured Systolic Blood Pressure: −17.50 (15.80) mmHg
[1]
  Mean (SD) Automated Office-Measured Diastolic Blood Pressure at Wk 8: 74.86 (11.87) mmHg
  Mean (SD) Change from Baseline at Week 8 in Automated Office-Measured Diastolic Blood Pressure: −6.93 (7.79) mmHg
12.5 mg BID, Seated SBP Tertile Low
  Mean (SD) Automated Office-Measured Diastolic Blood Pressure at Wk 8: 78.50 (9.88) mmHg
[2]
  Mean (SD) Automated Office-Measured Diastolic Blood Pressure at Wk 8: 73.88 (9.48) mmHg
  Mean (SD) Change from Baseline at Week 8 in Automated Office-Measured Diastolic Blood Pressure: −6.69 (10.60) mmHg
12.5 mg BID, Sex Female
  Mean (SD) Automated Office-Measured Diastolic Blood Pressure at Wk 8: 74.07 (10.32) mmHg
  Mean (SD) Automated Office-Measured Systolic Blood Pressure at Wk 8: 131.00 (14.17) mmHg
  Mean (SD) Change from Baseline at Week 8 in Automated Office-Measured Diastolic Blood Pressure: −5.25 (9.78) mmHg
  Mean (SD) Change from Baseline at Week 8 in Automated Office-Measured Systolic Blood Pressure: −12.46 (18.69) mmHg
[3]
  Mean (SD) Automated Office-Measured Systolic Blood Pressure at Wk 8: 131.86 (14.81) mmHg
  Mean (SD) Change from Baseline at Week 8 in Automated Office-Measured Systolic Blood Pressure: −24.93 (18.46) mmHg
[4]
  Mean (SD) Automated Office-Measured Systolic Blood Pressure at Wk 8: 132.25 (10.34) mmHg
  Mean (SD) Change from Baseline at Week 8 in Automated Office-Measured Systolic Blood Pressure: −0.75 (5.48) mmHg
[5]
  Mean (SD) Automated Office-Measured Systolic Blood Pressure at Wk 8: 131.75 (14.00) mmHg
  Mean (SD) Change from Baseline at Week 8 in Automated Office-Measured Systolic Blood Pressure: −10.56 (16.34) mmHg
[6]
  Automated Office-Measured Diastolic Blood Pressure, Week 8, Mean (SD): 79.57 (10.75) mmHg
  Mean (SD) Automated Office-Measured Systolic Blood Pressure at Wk 8: 139.29 (13.28) mmHg
  Mean (SD) Change from Baseline at Week 8 in Automated Office-Measured Diastolic Blood Pressure: −3.29 (8.80) mmHg
  Mean (SD) Change from Baseline at Week 8 in Automated Office-Measured Systolic Blood Pressure: −4.43 (15.93) mmHg
[7]
  Automated Office-Measured Diastolic Blood Pressure, Week 8, Mean (SD): 72.67 (9.15) mmHg
  Mean (SD) Automated Office-Measured Systolic Blood Pressure at Wk 8: 127.58 (11.07) mmHg
  Mean (SD) Change from Baseline at Week 8 in Automated Office-Measured Diastolic Blood Pressure: −7.33 (8.79) mmHg
  Mean (SD) Change from Baseline at Week 8 in Automated Office-Measured Systolic Blood Pressure: −19.25 (16.90) mmHg
12.5 mg QD, ACEi/ARB No
  Mean (SD) Automated Office-Measured Systolic Blood Pressure at Wk 8: 138.25 (20.45) mmHg
  Mean (SD) Change from Baseline at Week 8 in Automated Office-Measured Systolic Blood Pressure: −8.50 (31.61) mmHg
12.5 mg QD, ACEi/ARB Yes
  Mean (SD) Automated Office-Measured Systolic Blood Pressure at Wk 8: 141.50 (23.12) mmHg
  Mean (SD) Change from Baseline at Week 8 in Automated Office-Measured Systolic Blood Pressure: −6.39 (16.84) mmHg
12.5 mg QD, ACEi/ARBs No
  Mean (SD) Automated Office-Measured Diastolic Blood Pressure at Wk 8: 73.25 (13.50) mmHg
  Mean (SD) Change from Baseline at Week 8 in Automated Office-Measured Diastolic Blood Pressure: −5.50 (11.85) mmHg
12.5 mg QD, ACEi/ARBs Yes
  Mean (SD) Automated Office-Measured Diastolic Blood Pressure at Wk 8: 83.79 (17.89) mmHg
  Mean (SD) Change from Baseline at Week 8 in Automated Office-Measured Diastolic Blood Pressure: −0.71 (13.94) mmHg
12.5 mg QD, AHTs 2
  Mean (SD) Automated Office-Measured Diastolic Blood Pressure at Wk 8: 80.80 (18.35) mmHg
  Mean (SD) Automated Office-Measured Systolic Blood Pressure at Wk 8: 142.80 (25.41) mmHg
  Mean (SD) Change from Baseline at Week 8 in Automated Office-Measured Diastolic Blood Pressure: −4.60 (10.04) mmHg
  Mean (SD) Change from Baseline at Week 8 in Automated Office-Measured Systolic Blood Pressure: −9.70 (21.49) mmHg
12.5 mg QD, AHTs ≥3
  Mean (SD) Automated Office-Measured Diastolic Blood Pressure at Wk 8: 82.25 (16.96) mmHg
  Mean (SD) Automated Office-Measured Systolic Blood Pressure at Wk 8: 138.25 (18.26) mmHg
  Mean (SD) Change from Baseline at Week 8 in Automated Office-Measured Diastolic Blood Pressure: 1.75 (16.61) mmHg
  Mean (SD) Change from Baseline at Week 8 in Automated Office-Measured Systolic Blood Pressure: −3.31 (18.37) mmHg
12.5 mg QD, Age 65-79 yr
  Mean (SD) Automated Office-Measured Diastolic Blood Pressure at Wk 8: 77.25 (5.52) mmHg
